Results from ChEMBL document CHEMBL1157539, “Thousands of chemical starting points for antimalarial lead identification” (Nature, 2010).

Tested on: Plasmodium falciparum
Assay: GSK_TCMDC: Inhibition of Plasmodium falciparum 3D7 in whole erythrocytes, using parasite LDH activity as an index of growth.
Format: functional, organism-based
Settings: Plasmodium falciparum, 3D7

Row | Compound | XC50 [nM]
1 | N#Cc1ccc(N(CCOc2ccc3c(c2)CCC(=O)N3)Cc2ccccc2C(F)(F)F)cc1C(F)(F)F | 763
2 | O=C(NCCCCN1CCN(c2cccc3c2OCCO3)CC1)c1ccc(NC(=O)c2cc(Cl)cc(Cl)c2)cc1 | 225
3 | Cc1ccccc1C1CCN(c2ccc(C(=O)Nc3ccc(F)cc3)cn2)CC1 | 194
4 | O=C(N[C@H]1CCN(Cc2ccc(OC3CCN(Cc4ccccc4)CC3)c(Cl)c2)C1)c1ccc(Cl)c(Cl)c1 | 814
5 | CCN(CC)CCN(Cc1ccc(-c2ccc(Cl)s2)cc1)C(=O)Cn1c(CCc2cccc(F)c2F)nc(=O)c2ccccc21 | 1140
6 | O=C(NCc1cccc(C(F)(F)F)c1)[C@@H]1CCCN1C(=O)c1ccc(O)c(-c2ccc(Cl)c(Cl)c2)c1 | 787
7 | O=C(Nc1nc2cc(S(=O)(=O)NCCc3ccc(F)cc3)ccc2n1CCCn1ccnc1)c1ccc(Cl)cc1 | 1110
8 | O=C(Nc1ccc(-c2ccc(CN3CCNCC3)cc2)cc1)c1cccc(Cl)c1 | 894
9 | Clc1ccccc1CNc1noc(-c2sccc2Br)n1 | 787
10 | Cc1cccc2nc(-c3ccc(-c4cccc(CNCc5cnn(-c6ccccc6)n5)c4)s3)[nH]c12 | 551
11 | OC(CNCc1ccccc1Oc1ccccc1)c1cc(Br)cs1 (stereo not given) | 1110
12 | O=C(Cc1n[nH]c(=O)c2ccccc12)Nc1cccc(C(=O)Nc2cccc(C(F)(F)F)c2)c1 | 169
13 | N#Cc1cccc(CN2CCCN(Cc3cccc(C(=O)Nc4ccc(Cl)cc4)c3)CC2)c1 | 1180
14 | COC(=O)c1ccc(CCC(C)NCC(O)c2cccc(C(F)(F)F)c2)cc1 (stereo not given) | 411
15 | CNCCCn1c(N(C)C)nc2cc(-n3cnc4cc(-c5ccc(Cl)cc5)sc4c3=O)ccc21 | 1140
16 | NC1CCN(Cc2ccc(-c3cccc(-c4nc5cc(F)ccc5[nH]4)c3)cc2)C1 (stereo not given) | 759
17 | Cc1nc(-c2ccc(-c3ccc(C(=O)Nc4ccc5c(c4)C4(CCNCC4)CO5)cc3)c(C)c2)no1 | 858
18 | c1cc(-c2ccc(CN3CCCCC3)cc2)cc(-c2nc3ccccc3[nH]2)c1 | 585
19 | O=C(NCCCNc1ccnc2cc(Cl)ccc12)c1ccccc1F | 315
20 | O=C(/C=C/c1ccc(F)cc1)NC1CCC(CCN2CCc3ccccc3CC2)CC1 (stereo not given) | 1400
21 | O=C(/C=C/c1ccc(Cl)c(Cl)c1)N1CCN(C(=O)Nc2cccc(C(F)(F)F)c2)CC1 | 704
22 | Cc1ccccc1N1CCN(c2ccc(C(=O)NC3CC3)cn2)CC1 | 459
23 | NC(=O)c1cccc(C(=O)Nc2cccc(-c3cccc(-c4nc5cc(F)ccc5[nH]4)c3)c2)c1 | 249
24 | Nc1nc(N)c2c(Cl)c(N(Cc3ccccc3)Cc3ccccc3)ccc2n1 | 192

Row | Compound | XC50 [nM]
25 | OC(COCc1ccc(-c2ccccc2)cc1)CN1CCCCC1 (stereo not given) | 269
26 | N=C(N)Nc1nc(-c2cccc(NC(=O)NCCc3c[nH]c4ccc(OCc5ccccc5)cc34)c2)cs1 | 805
27 | O=C1COC(c2ccccc2)(c2ccccc2)CN1CC1CCN(Cc2ccc(O)cc2Cl)C1 (stereo not given) | 999
28 | Cn1cncc1-c1ccc2ncnc(Nc3ccc4c(cnn4Cc4ccccc4)c3)c2c1 | 180
29 | CCc1ccc(NC(=O)c2ccc(CN3CCCN(Cc4cccc(Cl)c4)CC3)cc2)cc1 | 1110
30 | CCN(CCCN1CCCC1)c1cc(C)nc(Nc2ccc(Cl)cc2)n1 | 344
31 | N=c1sc2ccccc2n1CC(O)c1ccc(Cl)c(Cl)c1 (stereo not given) | 800
32 | O=C(Nc1ccc(-c2cccc(-c3nc4ccccc4[nH]3)c2)cc1)Nc1ccc(F)c(F)c1F | 182
33 | CN(c1ccc(NC(=O)c2ccc(F)cc2)cc1)C1CCN(Cc2cccc(F)c2)C1 (stereo not given) | 1410
34 | COc1ccccc1-c1nc2nc(N)nc(N)c2nc1-c1ccccc1OC | 1250
35 | N=C(N)NC(=O)Nc1cc(Cl)c(Br)c(Cl)c1 | 469
36 | Cc1c(F)cc(C(=O)NC2CC2)cc1-c1ccc2c(cnn2S(=O)(=O)c2cccs2)c1 | 862
37 | Cc1c(CNCCCNc2cc(=O)c3ccccc3[nH]2)sc(/C=N/O)c1Br | 1080
38 | CC(C)CNCc1ccc(-c2ccccc2CNC2CCN(Cc3ccccc3)CC2)cc1 | 565
39 | Oc1ccc2[nH]cc(C3CCN(CCC(c4ccccc4)c4ccccc4)CC3)c2c1 | 994
40 | Cc1c(C(C)(C)C)ccc2nc(N)nc(N)c12 | 8.73
41 | COc1ccc2ncc(F)c(CCN3CCC(NCc4cc(C)c5c(c4)OCCO5)CC3)c2n1 | 493
42 | CS(=O)(=O)c1ccc2[nH]c(-c3cc(-c4ccc(OCCN5CCOCC5)cc4)cnc3N)nc2c1 | 1060
43 | OC(CNCc1ccccc1OCc1ccccc1)c1cccc(Br)c1 (stereo not given) | 643
44 | COCCn1c(Sc2ncnc3sccc23)nc2ccccc21 | 879
45 | CCCCCN1CCCCC(NS(=O)(=O)c2ccc(C(=O)Nc3ccc(C(F)(F)F)cc3)cc2)C1 (stereo not given) | 768
46 | N#Cc1cc([N+](=O)[O-])ccc1-n1nc(-c2cccc(Cl)c2)n(CC2CCCO2)c1=S (stereo not given) | 914
47 | Cc1ccc(N2C(=O)C3C(C2=O)C2(c4ccccc4)C(=O)C3(c3ccccc3)C(c3ccccc3)=C2c2ccccc2)cc1 (stereo not given) | 869
48 | CCCCN1CCN(CC(O)CNC(=O)Nc2ccc(Cl)cc2)CC1 (stereo not given) | 68.5

Row | Compound | XC50 [nM]
49 | COc1ccc(CN(C)CCCCc2ccc(NC(=O)COc3cccc4sc5ccccc5c(=O)c34)cc2)cc1OC | 809
50 | CCOc1ccc(-c2nonc2NC(=O)c2cccc(Cl)c2)cc1OCC | 147
51 | CC(C)C[C@H](NC(=O)c1ccc(OCCN2CCOCC2)cc1)C(=O)N[C@H](/C=N/NC(=O)OC(C)(C)C)CCc1ccccc1 | 162
52 | CCN(CC)CCc1ccc2c(=O)cc(CCc3cccc(F)c3F)n(CC(=O)N(C)Cc3ccc(-c4ccc(C(F)(F)F)cc4)cc3)c2c1 | 862
53 | O=C(C=Cc1ccc(Cl)c(Cl)c1)NCCCCCN1CCC(CCCNC(=O)C2CC2c2ccccc2)CC1 (stereo not given) | 765
54 | Cc1nc(C)c(CC(=O)Nc2cccc(-c3cccc(-c4nc5cccc(C)c5[nH]4)c3)c2)s1 | 755
55 | Cc1cccc2nc(-c3ccc(-c4cccc(NC(=O)Nc5ccsc5)c4)s3)[nH]c12 | 542
56 | Cn1c(=O)c(-c2c(Cl)cccc2Cl)cc2cnc(Nc3ccc(N4CCOCC4)cc3)nc21 | 161
57 | O=C(Nc1cc(F)cc(F)c1)N1CCOC(CCN2CCC(c3ccccc3)CC2)(c2ccc(Cl)c(Cl)c2)C1 (stereo not given) | 466
58 | Cc1cccc2nc(-c3cccc(-c4cccc(NC(=O)C5CC(=O)Nc6ccccc65)c4)c3)[nH]c12 (stereo not given) | 64.6
59 | Cc1nc2ccc(-c3ccc(OC(F)(F)F)cc3)cc2c(O)c1C#N | 20.7
60 | COC(=O)[C@@H](NC(=O)[C@H](Cc1ccc(OC)c(OC)c1)Nc1ccc(C#N)c2ccccc12)c1ccc(O)cc1 | 751
61 | O=C(NC(c1ccccc1)c1ccc2cccnc2c1O)c1ccccc1 (stereo not given) | 428
62 | COc1cc(Nc2ccnc3ccc(C(C)(C)C)cc23)cc(OC)c1OC | 610
63 | Clc1cc(Nc2ccnc3ccc(Br)cc23)ccc1Oc1ccc2ccccc2c1Cl | 725
64 | Cc1cccc2nc(-c3ccc(-c4cccc(NC(=O)Nc5ccc6c(c5)OCO6)c4)cc3)[nH]c12 | 745
65 | COc1cc(CNc2ncc(-c3ccsc3)c(-c3nccs3)n2)cc(OC)c1 | 126
66 | O=S(=O)(NCCN1CCCC1)c1ccc(-c2cccc(CNCc3ccsc3)c2)s1 | 896
67 | CCCc1nc2c(N3CC(NC(=O)/C=C/c4ccccc4)C3)cccc2n1C1CC1 | 554
68 | O=[N+]([O-])c1cccc(CNCC2CCN(Cc3ccc(C(F)(F)F)cc3)CC2)c1 | 245
69 | O=C(/C=C/c1ccc(Cl)c(Cl)c1)NCCCCCN1CCC(n2c(=O)[nH]c3ccccc32)CC1 | 869
70 | CN1CCCN(Cc2ccc(-c3ccc(NC(=O)c4ccc(Cl)cc4)cc3)cc2)CC1 | 895
